Patent publication US12098386B2, “Use of germ cells for preparing a micro hair follicle” (L'OREAL, priority 2016, dated 2024)

Test system: germ cells
Test: Culture-amplification of germ cells on 3T3 feeder layer in Green 7F medium with or without ROCK inhibitor
Format: cell-based
Description: The germ cell region, called the bulge (FIG. 1), is extracted from the connective tissue sheath (FIG. 2) and then placed in a petri dish containing 3T3i cells (FIG. 3).
The hair follicles are extracted from a surgical residue of scalp. Said residue is first cut into 5 mm^2 portions and then sectioned using a scalpel between the dermis and the hypodermis.
The follicles are extracted using ophthalmic surgery forceps and are then sectioned just above the papilla with a scalpel. The bulb is then recovered. At this stage, the bulb comprises two compartments: the dermal compartment (dermal papilla and connective tissue sheath) and the matrix cells which form a cell mass.
The epithelial part is separated from the dermal part using perfusion needles. Only the epithelial part is cultured.
The MEM medium+10% FCS+7F (called Green 7F medium) has the following composition:
After microdissection, the hair follicles in the telogen phase are deposited in Petri dishes 60 mm in diameter, seeded beforehand with 1 million 3T3 cells, and covered with the complete Green 7F culture medium; a culture of germ cells at confluence is obtained.
The telogen hair with the non-dissociated germ cell clump are isolated and deposited on a 3T3 feeder layer (FIG. 3). After 3 d of culture, the cells begin to proliferate in the form of a colony around the germ clump (FIG. 4). The cells reach subconfluence in 7 days (FIG. 5). […]

Q: C[C@@H](N)[C@H]1CC[C@H](C(=O)Nc2ccncc2)CC1 [Y27632] was tested. Which “Differentiation of germ cells into marker-positive keratinocytes (K15, CD29, CD200)” value (germ cells cultured in 7F medium containing the rock inhibitor (FIG. 6)) did it give?
A: keratinocytes that are positive for the K15, CD29 and CD200 markers

Q: And the “Proliferation of the germ cells (reaching confluence)” value (green 7F medium, Y27632 at 10 μM, in the same medium without the rock inhibitor the cells do not proliferate (FIG. 7a/7b))?
A: very rapidly reaching confluence
